Measurements taken from ChEMBL document CHEMBL1201862, “PubChem BioAssay data set” (2004).
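A five-concentration, 48-hour dose response in 96-well plates underlies each endpoint, interpolated linearly between surrounding concentrations. At the GI50, growth is halved.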 Activity calls are given as the source filed them. Cut-off read from the data, not from the text of the source: active = GI50 up to about 1.1 µM and inactive = higher.

Assays:
Experiment in all cases: NCI anticancer screen, dose series, 48 h
SK-OV-3 = system: SK-OV-3
CCRF-CEM = system: CCRF-CEM
T47D = system: T47D
IGROV-1 = system: IGROV-1
OVCAR-5 = system: OVCAR-5
SN12C = system: SN12C
MDA-MB-435 = system: MDA-MB-435
OVCAR-4 = system: OVCAR-4
EKVX = system: EKVX
NCI-H460 = system: NCI-H460
LOX IMVI = system: LOX IMVI
TK-10 = system: TK-10
NCI/ADR-RES = system: NCI/ADR-RES
Hs-578T = system: Hs-578T
HOP-62 = system: HOP-62
KM12 = system: KM12
UACC-62 = system: UACC-62
HCC 2998 = system: HCC 2998
SK-MEL-2 = system: SK-MEL-2
SF-295 = system: SF-295
DU-145 = system: DU-145
HOP-92 = system: HOP-92
U-251 = system: U-251
HT-29 = system: HT-29
RPMI-8226 = system: RPMI-8226
MCF7 = system: MCF7
HL-60 = system: HL-60
HCT-15 = system: HCT-15
RXF 393 = system: RXF 393
SK-MEL-28 = system: SK-MEL-28
OVCAR-8 = system: OVCAR-8
BT-549 = system: BT-549
ACHN = system: ACHN
A549 = system: A549
OVCAR-3 = system: OVCAR-3
CAKI-1 = system: CAKI-1
SNB-75 = system: SNB-75
A498 = system: A498
MDA-MB-231 = system: MDA-MB-231
SW-620 = system: SW-620
MDA-N = system: MDA-N
PC-3 = system: PC-3
NCI-H522 = system: NCI-H522
NCI-H226 = system: NCI-H226
MOLT-4 = system: MOLT-4
K562 = system: K562
UACC-257 = system: UACC-257
M14 = system: M14
SR = system: SR
SNB-19 = system: SNB-19
SF-539 = system: SF-539
SK-MEL-5 = system: SK-MEL-5
786-0 = system: 786-0
HCT-116 = system: HCT-116
Malme-3M = system: Malme-3M
NCI-H23 = system: NCI-H23
COLO 205 = system: COLO 205
SF-268 = system: SF-268
UO-31 = system: UO-31

COc1ccc(C2C(C(=O)c3ccccc3)=C(O)C(O)(CC(=O)c3ccccc3)N2c2ccc(OC)cc2)cc1 (stereo not drawn)
GI50 (SK-OV-3): 25.2 µM (inactive)
GI50 (CCRF-CEM): 3.52 µM (inactive)
GI50 (T47D): 18.5 µM (inactive)
GI50 (IGROV-1): 21.9 µM (inactive)
GI50 (OVCAR-5): 23.6 µM (inactive)
GI50 (SN12C): 21.6 µM (inactive)
GI50 (MDA-MB-435): 18.6 µM (inactive)
GI50 (OVCAR-4): 19.1 µM (inactive)
GI50 (EKVX): 24.6 µM (inactive)
GI50 (NCI-H460): 24.4 µM (inactive)
GI50 (LOX IMVI): 15.2 µM (inactive)
GI50 (TK-10): 16.3 µM (inactive)
GI50 (NCI/ADR-RES): 12.5 µM (inactive)
GI50 (Hs-578T): 28.6 µM (inactive)
GI50 (HOP-62): 18.8 µM (inactive)
GI50 (KM12): 11.2 µM (inactive)
GI50 (UACC-62): 22.8 µM (inactive)
GI50 (HCC 2998): 11.1 µM (inactive)
GI50 (SK-MEL-2): 16.1 µM (inactive)
GI50 (SF-295): 12.3 µM (inactive)
GI50 (DU-145): 38.4 µM (inactive)
GI50 (HOP-92): 4.2 µM (inactive)
GI50 (U-251): 8.09 µM (inactive)
GI50 (HT-29): 19.3 µM (inactive)
GI50 (RPMI-8226): 5.04 µM (inactive)
GI50 (MCF7): 11.9 µM (inactive)
GI50 (HL-60): 5.78 µM (inactive)
GI50 (HCT-15): 9.38 µM
GI50 (RXF 393): 9.38 µM (inactive)
GI50 (SK-MEL-28): 28.6 µM (inactive)
GI50 (OVCAR-8): 10.4 µM (inactive)
GI50 (BT-549): 7.55 µM (inactive)
GI50 (ACHN): 21 µM (inactive)
GI50 (A549): 22.4 µM (inactive)
GI50 (OVCAR-3): 7.67 µM (inactive)
GI50 (CAKI-1): 24.5 µM (inactive)
GI50 (SNB-75): 34.1 µM (inactive)
GI50 (A498): 44.6 µM (inactive)
GI50 (MDA-MB-231): 19.2 µM (inactive)
GI50 (SW-620): 9.08 µM (inactive)
GI50 (MDA-N): 20.9 µM (inactive)
GI50 (PC-3): 11.6 µM (inactive)
GI50 (NCI-H522): 4.35 µM (inactive)
GI50 (NCI-H226): 16.1 µM (inactive)
GI50 (MOLT-4): 12.5 µM (inactive)
GI50 (K562): 16.6 µM (inactive)
GI50 (UACC-257): 7.94 µM (inactive)
GI50 (M14): 31.2 µM (inactive)
GI50 (SR): 4.66 µM (inactive)
GI50 (SNB-19): 12.2 µM (inactive)
GI50 (SF-539): 24.4 µM (inactive)
GI50 (SK-MEL-5): 9.57 µM (inactive)
GI50 (786-0): 16.8 µM (inactive)
GI50 (HCT-116): 9.29 µM (inactive)
GI50 (Malme-3M): 28 µM (inactive)
GI50 (NCI-H23): 21.1 µM (inactive)
GI50 (COLO 205): 17.6 µM (inactive)
GI50 (SF-268): 33.7 µM (inactive)
GI50 (UO-31): 11.5 µM (inactive)

O=S1(=O)c2ccccc2NC(=S)N1c1ccccc1
GI50 (SK-OV-3): > 100 µM (inactive)
GI50 (CCRF-CEM): 54.1 µM (inactive)
GI50 (T47D): 69.5 µM (inactive)
GI50 (IGROV-1): 2.45 µM (inactive)
GI50 (OVCAR-5): 92.9 µM (inactive)
GI50 (SN12C): 62.2 µM (inactive)
GI50 (MDA-MB-435): 50.1 µM (inactive)
GI50 (OVCAR-4): 53.3 µM (inactive)
GI50 (EKVX): 32.4 µM (inactive)
GI50 (NCI-H460): > 79.1 µM (inactive)
GI50 (LOX IMVI): 26.7 µM (inactive)
GI50 (TK-10): > 72.4 µM (inactive)
GI50 (NCI/ADR-RES): 60.1 µM (inactive)
GI50 (Hs-578T): 69.2 µM (inactive)
GI50 (HOP-62): 7.1 µM (inactive)
GI50 (KM12): > 77.1 µM (inactive)
GI50 (UACC-62): 65.9 µM (inactive)
GI50 (HCC 2998): 53.5 µM (inactive)
GI50 (SK-MEL-2): 73.5 µM (inactive)
GI50 (SF-295): 3.49 µM (inactive)
GI50 (DU-145): 87.1 µM (inactive)
GI50 (HOP-92): 3.89 µM (inactive)
GI50 (U-251): > 72.3 µM (inactive)
GI50 (HT-29): > 13.4 µM (inactive)
GI50 (RPMI-8226): > 59.2 µM (inactive)
GI50 (MCF7): 63.2 µM (inactive)
GI50 (HL-60): 32 µM (inactive)
GI50 (HCT-15): 75 µM
GI50 (RXF 393): > 54.2 µM (inactive)
GI50 (SK-MEL-28): > 89.9 µM (inactive)
GI50 (OVCAR-8): 34.6 µM (inactive)
GI50 (BT-549): 47.6 µM (inactive)
GI50 (ACHN): 70.6 µM (inactive)
GI50 (A549): 6.17 µM (inactive)
GI50 (OVCAR-3): 41.4 µM (inactive)
GI50 (CAKI-1): > 72.8 µM (inactive)
GI50 (SNB-75): 2.61 µM (inactive)
GI50 (A498): > 58.9 µM (inactive)
GI50 (MDA-MB-231): > 57.8 µM (inactive)
GI50 (SW-620): > 100 µM (inactive)
GI50 (MDA-N): 36 µM (inactive)
GI50 (PC-3): 58.3 µM (inactive)
GI50 (NCI-H522): 21.3 µM (inactive)
GI50 (NCI-H226): 43.9 µM (inactive)
GI50 (MOLT-4): 29.5 µM (inactive)
GI50 (K562): 49.1 µM (inactive)
GI50 (UACC-257): 40 µM (inactive)
GI50 (M14): 29.5 µM (inactive)
GI50 (SR): 44.8 µM (inactive)
GI50 (SNB-19): 7.1 µM (inactive)
GI50 (SF-539): > 100 µM (inactive)
GI50 (SK-MEL-5): 32 µM (inactive)
GI50 (786-0): > 87.3 µM (inactive)
GI50 (HCT-116): 45.3 µM (inactive)
GI50 (Malme-3M): 46.1 µM (inactive)
GI50 (NCI-H23): 46.3 µM (inactive)
GI50 (COLO 205): 77.8 µM (inactive)
GI50 (SF-268): 71.1 µM (inactive)
GI50 (UO-31): 36.7 µM (inactive)
